From PubChem BioAssay AID504702 (Southern Research Specialized Biocontainment Screening …, 2011)
Values joined by “and” are separate entries in the source; they are usually repeats but may differ in a detail not shown here. Equal values may be shown once. Active and inactive are the calls of the source. The rule behind the calls is not given here.

Assays:
[1] = M. tuberculosis growth inhibition with meropenem, dose response, H37Rv, set 2 (AID 504702);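 note: growth read by Alamar Blue after 7 days plus overnight incubation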; conditions: M. tuberculosis H37Rv with meropenem, growth inhibition
[2] = system: M. tuberculosis H37Rv with meropenem, growth inhibition; experiment: as above; conditions: for IC90: measured here: IC90 growth with meropenem

Compound: O=C(COc1ccccc1)Nc1nc2ccccc2s1
- growth inhibition ([1]; at 25 µM (top of the series)): -1.01% (inactive)

Compound: Cc1cc2cc(O)ccc2[nH]1
- growth inhibition ([1]; at 25 µM (top of the series)): 1.86% (inactive)

Compound: CCOc1ccc2c(ccn2-c2ccccc2)c1
- growth inhibition ([1]; at 25 µM (top of the series)): -1.15% (inactive)

Compound: CCOc1ccc2c(c1)c(C(C)=O)c(C)n2-c1ccccc1Cl
- IC50 [2]: 13.6 µM
- IC90 [2]: > 25 µM

Compound: CC(C)(Oc1ccc(Cl)cc1)C(=O)Nc1nc2ccccc2s1
- growth inhibition ([1]; at 25 µM (top of the series)): 1.22% (inactive)

Compound: N/C(=N\c1nc2ccccc2o1)NC(=O)c1ccccc1Br
- IC50 [2]: 3.04 µM
- IC90 [2]: > 25 µM

Compound: CCOc1ccc2[nH]c(C)cc2c1
- growth inhibition ([1]; at 25 µM (top of the series)): -0.67% (inactive)

Compound: COC(=O)c1c(C)[nH]c2ccccc12
- growth inhibition ([1]; at 25 µM (top of the series)): -4.94% (inactive)

Compound: Cc1cc(C)c(OCC(=O)Nc2nc3ccc(C)cc3s2)c(C)c1
- growth inhibition ([1]; at 25 µM (top of the series)): -0.38% (inactive)

Compound: CCc1ccc2nc(/N=C(\N)NC(=O)c3ccccc3)nc(C)c2c1
- IC50 [2]: 0.82 µM
- IC90 [2]: > 25 µM

Compound: O=C(COc1cccc2ccccc12)Nc1nc2ccccc2s1
- growth inhibition ([1]; at 25 µM (top of the series)): -6.75% (inactive)

Compound: O=C(Cc1csc(-c2ccccc2F)n1)Nc1nc2ccccc2[nH]1
- growth inhibition ([1]; at 25 µM (top of the series)): 1.69% (inactive)

Compound: Cc1cc2cc(Cl)ccc2n1-c1ccccc1
- growth inhibition ([1]; at 25 µM (top of the series)): 16.5% (inactive)

Compound: CCOc1ccc2nc(NC(=O)COc3ccccc3)sc2c1
- growth inhibition ([1]; at 25 µM (top of the series)): -8.57% (inactive)

Compound: Oc1ccc2[nH]ccc2c1
- growth inhibition ([1]; at 25 µM (top of the series)): 3.81% (inactive)

Compound: CCOc1ccc2c(c1)c(C(C)=O)c(C)n2-c1cccc(Cl)c1
- IC50 [2]: 10.5 µM
- IC90 [2]: > 25 µM

Compound: CC(=O)c1c(C)n(-c2ccccc2)c2ccc(O)cc12
- IC50 [2]: 20.1 µM
- IC90 [2]: > 25 µM

Compound: COC(=O)c1sc(-c2ccc(C(C)(C)C)cc2)cc1NC(=O)CCC(=O)O
- IC50 [2]: 3.46 µM and 7.32 µM
- IC90 [2]: > 25 µM

Compound: Cc1cc2ccccc2[nH]1
- growth inhibition ([1]; at 25 µM (top of the series)): 0.33% (inactive)

Compound: COc1ccc2c(c1)c(C(C)=O)c(C)n2-c1ccccc1
- IC50 [2]: 0.53 µM and 1.3 µM
- IC90 [2]: > 18.8 µM

Compound: COc1ccc2nc(NC(=O)COc3ccccc3)sc2c1
- growth inhibition ([1]; at 25 µM (top of the series)): -1.31% (inactive)

Compound: COc1ccc(C(=O)Nc2ccc3nc(N4CCCCC4)cc(C)c3c2)c(OC)c1
- IC50 [2]: 17.6 µM
- IC90 [2]: > 25 µM

Compound: Cc1ccc2oc(/N=C(\N)NC(=O)c3ccccc3)nc2c1
- growth inhibition ([1]; at 25 µM (top of the series)): 5.09% (inactive)

Compound: CCOc1ccc2c(c1)c(C(C)=O)c(C)n2Cc1ccco1
- growth inhibition ([1]; at 25 µM (top of the series)): -2.87% (inactive)

Compound: CC(Oc1ccc(Cl)cc1)C(=O)Nc1nc2ccccc2s1 (configuration not stated)
- growth inhibition ([1]; at 25 µM (top of the series)): -2.09% (inactive)

Compound: Cc1ccccc1OCC(=O)Nc1noc(-c2ccccc2)n1
- growth inhibition ([1]; at 25 µM (top of the series)): -4.18% (inactive)

Compound: N/C(=N\c1nc2ccccc2o1)NC(=O)COc1ccc2ccccc2c1
- growth inhibition ([1]; at 25 µM (top of the series)): -2.85% (inactive)

Compound: O=C(CC12CC3CC(CC(C3)C1)C2)NCc1ccc(F)cc1
- growth inhibition ([1]; at 18.8 µM (top of the series)): -0.16% (inactive)
- growth inhibition ([1]; at 25 µM (top of the series)): -0.41% (inactive)

Compound: CCOc1ccc2c(c1)c(C(C)=O)c(C)n2-c1ccccc1C
- IC50 [2]: 3.43 µM
- IC90 [2]: 12.1 µM

Compound: COc1ccc2oc(C(=O)Nc3nc4ccccc4[nH]3)c(C)c2c1
- IC90 [2]: > 25 µM

Compound: CCOc1ccc2c(c1)c(CC)c(C)n2-c1ccccc1
- IC50 [2]: 4.42 µM
- IC90 [2]: > 25 µM

Compound: c1ccc(Nc2ncnc3c2oc2ccccc23)cc1
- IC50 [2]: 5.29 µM
- IC90 [2]: > 25 µM

Compound: O=C(OC(C(=O)Nc1ccc(Cl)cc1C(F)(F)F)c1ccccc1)C1=COCCO1 (configuration not stated)
- IC50 [2]: 3.17 µM
- IC90 [2]: > 25 µM

Compound: O=C(COC(=O)C1=COCCO1)Nc1ccc2c(c1)OCO2
- IC50 [2]: 9.76 µM
- IC90 [2]: > 25 µM

Compound: Cc1ccc(OCC(=O)Nc2ccc3c4c(cccc24)CC3)c(C)c1
- IC50 [2]: 0.91 µM and 6.11 µM
- IC90 [2]: > 25 µM

Compound: Cc1ccc(OCC(=O)Nc2cccc3ccccc23)c(C)c1
- IC50 [2]: 20.5 µM
- IC90 [2]: > 25 µM

Compound: CCOC(=O)c1cnc2cc(-c3ccc(C(C)(C)C)cc3)nn2c1N
- IC90 [2]: > 25 µM

Compound: c1ccc(OCc2nnc(-c3ccccc3)o2)cc1
- IC50 [2]: 15 µM and 5.67 µM
- IC90 [2]: > 25 µM

Compound: O=C(CCS(=O)(=O)c1ccc(F)cc1)Nc1nnc(-c2cccs2)o1
- IC50 [2]: 22.4 µM
- IC90 [2]: > 25 µM

Compound: CN(NC(=O)c1c(Cl)cccc1Cl)c1cccc(Cl)n1
- IC50 [2]: 15.5 µM
- IC90 [2]: > 25 µM

Compound: COc1ccc(Cl)cc1C(=O)Nc1nc2ccccc2[nH]1
- IC50 [2]: 16.2 µM
- IC90 [2]: > 25 µM

Compound: CCOc1ccc2c(c1)cc(C)n2-c1ccccc1
- IC50 [2]: 11.5 µM
- IC90 [2]: > 25 µM

Compound: CCOC(=O)COc1nc(-c2ccc(Cl)cc2)cc(-c2ccco2)c1C#N
- IC50 [2]: 6.8 µM and 4.07 µM
- IC90 [2]: > 25 µM

Compound: CCOc1ccc2[nH]cc(C(=O)OC)c2c1
- IC90 [2]: > 25 µM

Compound: COc1cccc(NC(=O)C2CC2)c1
- IC50 [2]: 0.58 µM and 3.28 µM
- IC90 [2]: > 25 µM

Compound: CC(=O)c1c(C)n(-c2ccccc2)c2ccccc12
- IC50 [2]: 11.6 µM
- IC90 [2]: > 25 µM

Compound: O=C(COc1ccc2ccccc2c1)Nc1nc2ccccc2[nH]1
- IC50 [2]: 8.87 µM
- IC90 [2]: > 25 µM
